Legend:
[1] = system: thromboxane A2 (TXA2) synthetase; test: thromboxane A2 (TXA2) synthetase inhibiting action; assay type: biochemical; details: statement in words, no test data
anti-pyretic action = assay type: in vivo; details: statement in words, no test data
[2] = system: Phenylquinone writhing syndrome; test: Analgesic action: Phenylquinone writhing syndrome (P.Q. Method); assay type: in vivo, mice (Slc:ICR, male); details: for analgesic action: statement in words; for P.Q. Method (inhibitory effect on writhing and stretching): mouse, oral, 30 minutes before phenylquinone
Method: B. Analgesic action: Phenylquinone writhing syndrome (P.Q. Method)
The test was conducted by following the method Siegmund et al. [Proc. Soc. exp. Biol. Med. 95, 729 (1957).] employing a group [ten Slc:ICR mice (male, 4-weeks old, weighing 20±2 g)]. Test compounds were administered orally 30 minutes before intraperitoneal injection of 0.02% phenylquinone by 0.1 ml/body weight of 10 g. Then, the frequency of responses, i.e. writhing and stretching was counted in each animal for 20 minutes. The average frequencies in the test group and the control group were compared, and an inhibitory effect of the compounds on this response was determined.

[3] = system: Water-immersion stress-induced gastric ulcer; test: Water-immersion stress-induced gastric ulcer (W.I. Method); assay type: in vivo, rats (SD, male); details: for anti-ulcer action: statement in words; for W.I. Method (inhibition ratio of ulcer index): rat, 50 mg/kg, 23° C. water immersion for five hours
Method: C. Water-immersion stress-induced gastric ulcer (W.I. Method)
Male SD rats (7-weeks old, weighing 190-240 g) were used after a 24 hr. fast in groups of six animals. According to the method of Takagi and Okabe [Jpn. J. Pharmacol., 18, 9 (1968)], the animals were placed in a stress cage made of stainless steel and immersed vertically to the level of xiphoid process in a water bath maintained at 23° C. for five hours. The length (mm) of individual lesions in fundic mucosa was measured under a dissecting microscope with a 1-mm square-grid eye piece (X10), and the sum of the length of individual lesions for each stomach was used as an ulcer index. The ulcer index of the test group was compared with that of the control group, and the inhibition ratio was calculated.

platelet aggregation = platelet aggregation controlling (inhibiting) action; assay type: cell-based; details: statement in words, no test data
[4] = system: Carrageenin edema (right-hind paw); test: Anti-inflammatory activity; Carrageenin edema (C.E. Method); assay type: in vivo, rats (Jcl: SD, male); details: rat, oral, 1 h before carrageenin; edema measured 3 hr later; dose not given
Method: A. Anti-inflammatory activity; Carrageenin edema (C.E. Method)
The anti-inflammatory activities of test compounds were estimated in a group [Six Jcl: SD rats (male, weighing 180-220 g)] by the method of Winter et al. [Proc. Soc. Exp. Biol. 111, 544 (1962)].
After measuring the volume of the right-hind paw (a), the rats were given orally 5 ml of water. One hour after oral administration of the test compounds, 0.05 ml each of a 1% carrageenin solution in physiological saline was subcutaneously injected at the sole of right-hind paw. Three hr. later, the volume of the right-hind paw was measured (b). The volume of edema was obtained from the difference […] between the two volumes. By comparing the volume of edema of the group, to which test compound was administered, with that of the group, to which no test compound was administered, an inhibitory effect of the compound on the edema was determined.

mice = test: Acute toxicity Test in mice; assay type: in vivo, mice (ICR, male); details: mouse, oral, 500 mg/kg, one week, groups of five
Method: D. Acute toxicity Test in mice
Five-weeks old ICR-male mice were used in groups of five animals. Each animal was orally administered with 500 mg/kg of each test compound. Then, during the subsequent one week, the number of dead animals was counted.

Row | Structure (SMILES) | anti-pyretic action (anti-pyretic action) | analgesic action [2] | anti-ulcer action [3] | C.E. Method (inhibitory effect on the carrageenin edema) [4] | Acute Toxicity (number of dead animals / animals) (mice) | W.I. Method (inhibition ratio of ulcer index) [3] | P.Q. Method (inhibitory effect on writhing and stretching) ([2]; 50 mg/kg) | other results
1 | O=C(O)CCCc1nc(-c2ccccc2)c(-c2cccnc2)s1 |  |  |  |  |  |  |  | thromboxane synthetase inhibiting action [1]: particularly excellent
2 | COc1ccc(-c2nc(N)sc2-c2cccnc2)cc1 [2-amino-4-(4-methoxyphenyl)-5-(3-pyridyl)-1,3-thiazole] | particularly excellent | particularly excellent | particularly excellent |  |  |  |  | 
3 | COc1ccc(-c2nc(C3CCCCC3)sc2-c2cccnc2)cc1 [2-cyclohexyl-4-(4-methoxyphenyl)-5-(3-pyridyl)-1,3-thiazole] |  |  |  |  |  |  |  | platelet aggregation controlling action (platelet aggregation): partienlarly excellent
4 | c1ccc(-c2nc(C3CCCCC3)sc2-c2cccnc2)cc1 [2-cyclohexyl-4-phenyl-5-(3-pyridyl)-1,3-thiazole] |  |  |  |  |  |  |  | platelet aggregation controlling action (platelet aggregation): partienlarly excellent
5 | CCc1nc(-c2ccc(OC)cc2)c(-c2cccnc2)s1 [2-ethyl-4-(4-methoxyphenyl)-5-(3-pyridyl)-1,3-thiazole] | particularly excellent | particularly excellent | particularly excellent |  |  |  |  | 
6 | CCNc1nc(-c2ccc3c(c2)OCO3)c(-c2cccnc2)s1 [2-ethylamino-4-(3,4-methylenedioxyphenyl)-5-(3-pyridyl)-1,3-thiazole] | particularly excellent | particularly excellent | particularly excellent |  |  |  |  | 
7 | CCNc1nc(-c2ccc3c(c2)CCC3)c(-c2cccnc2)s1 [2-ethylamino-4-(5-indanyl)-5-(3-pyridyl)-1,3-thiazole] | particularly excellent | particularly excellent | particularly excellent |  |  |  |  | 
8 | CNc1nc(-c2ccc3c(c2)OCO3)c(-c2cccnc2)s1 [2-methylamino-4-(3,4-methylenedioxyphenyl)-5-(3-pyridyl)-1,3-thiazole] | particularly excellent | particularly excellent | particularly excellent |  |  |  |  | 
9 | COc1ccc(-c2nc(-c3ccccc3)sc2-c2cccnc2)cc1 [2-phenyl-4-(4-methoxyphenyl)-5-(3-pyridyl)-1,3-thiazole] |  |  |  |  |  |  |  | platelet aggregation controlling action (platelet aggregation): partienlarly excellent
10 | CNc1nc(-c2ccc(OC)cc2)c(-c2cccnc2)s1 [Compound No. 1, 4-(4-methoxyphenyl)-2-methylamino-5-(3-pyridyl)-1,3-thiazole] | particularly excellent | particularly excellent | particularly excellent | 60 | 0/5 | 86 |  | P.Q. Method (inhibitory effect on writhing and stretching) ([2]; 25 mg/kg): 96.8
11 | Nc1nc(-c2ccccc2)c(-c2cccnc2)s1 [Compound No. 4] |  |  |  | 63.7 | 0/5 | 74 | 78.9 | 
12 | COc1ccc(-c2nc(N)sc2-c2cccnc2)cc1 [compound 2, 2-amino-4-(4-methoxyphenyl)-5-(3-pyridyl)-1,3-thiazole] |  |  |  | 77.1 | 0/5 | 70 | 52.6 | 
13 | Nc1nc(-c2ccc(O)cc2)c(-c2cccnc2)s1 [compound 9] |  |  |  | 16.9 | 0/5 | 71 | 40.5 | 
14 | Nc1nc(-c2ccccc2)c(-c2ccccn2)s1 [compound 13] |  |  |  | 7.0 | 0/5 | 66 | 67.5 | 
15 | COc1ccc(-c2nc(N)sc2-c2ccncc2)cc1 [compound 17] |  |  |  | 48.2 | 0/5 | 79 | 80.7 | 
16 | COc1ccc(-c2nc(-c3ccccc3)sc2-c2cccnc2)cc1 [compound 28, 2-phenyl-4-(4-methoxyphenyl)-5-(3-pyridyl)-1,3-thiazole] |  |  |  | 15.7 | 0/5 | 33 | 63.3 | 
17 | COc1ccc(-c2nc(CCCC(=O)O)sc2-c2cccnc2)cc1 [compound 43, 2-(3-carboxypropyl)-4-(4-methoyphenyl)-5-(3-pyridyl)-1,3-thiazole] |  |  |  |  |  |  |  | thromboxane synthetase inhibiting action [1]: particularly excellent
18 | CNc1nc(-c2ccc3c(c2)CCC3)c(-c2cccnc2)s1 [compound 79, 4-(5-indanyl)-2-methylamino-5-(3-pyridyl)-1,3-thiazole] | particularly excellent | particularly excellent | particularly excellent |  |  |  |  | 

Source: patent US4612321A, “5-pyridyl-1,3-thiazole derivatives” (Takeda Chemical Industries, Inc., priority 1983, dated 1986)
